Assay results published in publication PMC7688903 (Frontiers in Microbiology, 2020).
In brackets after ≈: the same amount, converted by molar mass. Entries after “also recorded” stand apart in the source; their conditions may differ. Where a SMILES comes first, the peptide text is derived from it. Where no end group is shown, it is not given here. [ ]: non-standard residue; d: D form. hArg = N=C(N)NCCCC[C@H](N)C(=O)O; 2Thi = N[C@@H](Cc1cccs1)C(=O)O; Aib = CC(C)(N)C(=O)O

What was measured:
[1] = plasma from healthy volunteers; conditions: human, 37°C, up to 36 h
Trypsin = assay: trypsin in 0.1 M NH4HCO3 buffer (pH 8.2); conditions: 37°C, up to 24 h
C. albicans ATCC 10231 = assay: microbe, parasite or virus in culture; type: cell-based, Candida albicans; conditions: ATCC 10231, 48 h
Description: (§1) The antimicrobial activities of the peptides were tested against E. coli ATCC 25922, P. aeruginosa ATCC 27853, carbapenem-resistant P. aeruginosa SIPI-012, A. baumannii ATCC 19606, carbapenem-resistant A. baumannii SIPI-025, S. aureus ATCC 25923, and C. albicans ATCC 10231. The minimum inhibitory concentration (MIC) values were determined using the microdilution method according to Clinical and Laboratory Standards Institute guidelines ([CLSI, 2008], [2012]). The peptides were dissolved in 10 mM PB to a concentration of 1280 μg/mL as stock solutions.
(§2) For inoculum preparation of bacteria, morphologically similar colonies selected from fresh MH agar plates were transferred using a loop into approximately 10 mL of MH broth in a capped test tube and vortexed. The suspension was adjusted with MH broth to achieve a turbidity equivalent to a 0.5 McFarland standard (BaSO4 solution prepared spectrophotometrically). A working suspension was prepared by making a 1:15 dilution followed by a 1:20 dilution of the stock suspension with MH broth medium to obtain approximately 5 × 10^5 CFU/mL. For inoculum preparation of yeast, five fresh colonies of approximately 1 mm diameter were picked from 24-hour-old cultures of C. albicans and suspended in 5 mL of sterile 0.85% saline. The resulting suspension was vortexed and the cell density was adjusted by adding sufficient sterile saline to achieve a turbidity equivalent to a 0.5 McFarland standard. A working suspension was prepared by making a 1:100 dilution followed by a 1:20 dilution of the stock suspension with RPMI 1640 broth medium to obtain 0.5 × 10^3 to 2.5 × 10^3 CFU/mL. Intermediate twofold dilutions of the peptides were prepared in MH broth and RPMI 1640 medium, and 90 μL aliquots were added to each well in addition to 10 μL of the inoculum prepared above.
(§3) Each plate included a growth control well and a sterility (uninoculated) control well. Colistin, vancomycin hydrochloride, and amphotericin B were used as positive controls for gram-negative bacteria, gram-positive bacteria, and fungi, respectively. The bacterial and fungal plates were incubated at 37°C for 20 h and 35°C for 48 h, respectively, both under ambient atmosphere. The inhibition of microbial growth was assessed visually. The MICs were determined from independent triplicate assays.

human erythrocytes = assay: Hemolytic activity assay; type: cell-based; conditions: human RBC in PB, 37°C, 1 h, OD420, total lysis control 0.1% SDS, three technical replicates
Description: Whole blood was obtained from a healthy volunteer. The red blood cells (RBC) were then centrifuged (800 × g, 10 min), washed twice with PB, resuspended in 1 mL of PB, and incubated with various concentrations of the peptides (32–128 μM) at 37°C for 1 h. As a positive control, total lysis of the RBC was accomplished by incubation with 0.1% SDS. For each condition, three technical replicates were performed. After incubation, the RBC were centrifuged at 800 × g for 10 min and the amount of hemoglobin released into the supernatant was determined by measuring the optical density OD420 using a SpectraMax i3x microplate reader (Molecular Devices) ([Zaet et al., 2017]).

S. aureus ATCC 25923 = assay: microbe, parasite or virus in culture; type: cell-based, Staphylococcus aureus; conditions: ATCC 25923, 20 h
Description: as §1, §2, §3

[2] = system: carbapenem-resistant P. aeruginosa (CRPA) SIPI-012; type: cell-based, Pseudomonas aeruginosa; conditions: carbapenem-resistant (CRPA) SIPI-012, 20 h
Description: as §1, §2, §3

P. aeruginosa ATCC 27853 = type: cell-based, Pseudomonas aeruginosa; conditions: ATCC 27853, 20 h
Description: as §1, §2, §3

A. baumannii ATCC 19606 = type: cell-based, Acinetobacter baumannii; conditions: ATCC 19606, 20 h
Description: as §1, §2, §3

[3] = system: carbapenem-resistant A. baumannii (CRAB) SIPI-025; type: cell-based, Acinetobacter baumannii; conditions: carbapenem-resistant (CRAB) SIPI-025, 20 h
Description: as §1, §2, §3

E. coli ATCC 25922 = type: cell-based, Escherichia coli; conditions: ATCC 25922, 20 h
Description: as §1, §2, §3

[4] = system: proteases secreted by S. aureus ATCC 25923; assay: in vitro; conditions: for remaining at 24 h, 0.5 mg/mL: Staphylococcus aureus, S. aureus ATCC 25923 culture supernatant, pH 8
Description: The stabilities of the peptides toward proteases secreted by E. coli ATCC 25922, P. aeruginosa ATCC 27853, A. baumannii ATCC 19606, S. aureus ATCC 25923, and C. albicans ATCC 10231 were also examined. Microbial supernatants were prepared by resuspending single colonies of each strain in 20 mL of an appropriate culture medium followed by incubation at 37°C overnight. MH broth and 2% tryptone/2% dextrose were used as the culture media for bacteria and yeast, respectively. Each culture was then centrifuged at 12,000 × g for 10 min and the supernatant was adjusted to pH 8.0 with HCl or NaOH and then filtered through a 0.22 μm sterile filter membrane ([Zaet et al., 2017]). The peptides were then dissolved in the filtered supernatants to a concentration of 0.5 mg/mL, and the peptide-free supernatants were used as negative controls. The samples were incubated at 37°C for 24 h in a water bath and then analyzed by RP-HPLC as described above.

human plasma proteases = assay: in vitro
Description: The peptides were mixed with plasma from healthy volunteers to a final concentration of 0.1 mg/mL and incubated at 37°C. Aliquots (20 or 40 μL) were removed after 0, 2, 4, 6, 8, 12, 24, and 36 h, mixed with 0.05% TFA to a final concentration of 0.01 mg/mL, and incubated on ice for 10 min. After centrifugation (12,000 × g, 5 min), the supernatant was stored at −20°C. The samples were analyzed as described in section “Hydrophobicity” and quantified as described in section “Stability Toward Tryptic Degradation.” All stability tests were performed at least in triplicate. The identities of the metabolites after 12 h of degradation by plasma proteases were determined by LC-MS on a Waters Acquity UPLC-QDa system.

RAW 264.7 cells = assay: Cell viability assay (MTT); type: cell-based, mouse; conditions: 1–128 μM peptide in DMEM with 4% FBS, 42 h, 595 nm, triplicate
Description: The peptides were dissolved in ddH2O to a concentration of 256 μM. RAW 264.7 cells were cultured in 100 μL of DMEM containing 10% FBS and seeded at a density of 1 × 10^4 cells in a 96-well culture plate. The plate was incubated at 37°C under 5% CO2 atmosphere overnight. After attaining 80% confluency, the cells were treated with various concentrations of the peptides (1–128 μM) dissolved in DMEM containing 4% FBS for 42 h. Cytotoxicity was determined using the MTT tetrazolium reduction assay and quantified spectrophotometrically at 595 nm using a SpectraMax i3x microplate reader. The cell viability was calculated with respect to control samples treated only with DMEM containing 4% FBS ([Khara et al., 2016]). Each test was done in triplicate and the concentration required for 50% inhibition of viability (IC50) was determined.

Compound | fragment found [1] | fragment found (Trypsin) | MIC (C. albicans ATCC 10231) [µg/mL] | Hemolysis rate (%) (human erythrocytes; 64 μM) | Hemolysis rate (%) (human erythrocytes; 128 μM) | MIC (S. aureus ATCC 25923) [µg/mL] | MIC [2] [µg/mL] | MIC (P. aeruginosa ATCC 27853) [µg/mL] | MIC (A. baumannii ATCC 19606) [µg/mL] | MIC [3] [µg/mL] | MIC (E. coli ATCC 25922) [µg/mL] | remaining at 24 h, 0.5 mg/mL [4] [%] | metabolised at 2 h, 0.1 mg/mL (human plasma proteases) [%] | metabolised at 4 h, 0.1 mg/mL (human plasma proteases) [%] | IC50 (RAW 264.7 cells) [µM] | Percent of remained peptide amount after incubation (%) ([4]; S. aureus ATCC 25923 culture supernatant (MH broth), pH 8.0, 0.22 μm filtered, peptide 0.5 mg/mL, 37°C, 24 h, RP-HPLC)
DapHorLFDapDapLLDabYLHorDabF | (Hor) LFDapDapLLDabYLHorDabF 3–14, major, 12 h; also recorded: (Dap) HorLFDapDapLLDabYLHorDabF 2–14, major, 12 h | DapHorLFDapDapLLDab (Y) 1–9, major, 18 h; also recorded: DapHorLFDapDapLLDabYLHor (Dab) 1–12, major, 18 h | – | – | – | – | – | – | – | – | – | – | – | – | – | –
KRLFKKLLKYLRKF | (R) LFKKLLKYLRKF 3–14, major, 12 h; also recorded: (K) RLFKKLLKYLRKF 2–14, major, 12 h | (R) LFK (K) 3–5, major, 18 h; also recorded: (K) LLK (Y) 7–9, major, 18 h; also recorded: (K) YLR (K) 10–12, major, 18 h; also recorded: (K) KLLK (Y) 6–9, major, 18 h; also recorded: (R) LFKK (L) 3–6, major, 18 h | – | – | – | – | – | – | – | – | – | – | – | – | – | –
DabHorLFDabDabLLDabYLHorDabF | (Hor) LFDabDabLLDabYLHorDabF 3–14, major, 12 h; also recorded: (Dab) HorLFDabDabLLDabYLHorDabF 2–14, major, 12 h | (Dab) HorLFDab (Dab) 2–5, major, 18 h; also recorded: (Dab) HorLFDabDabLLDab (Y) 2–9, major, 18 h | – | – | – | – | – | – | – | – | – | – | – | – | – | –
[Aib]RLFKKLLKYLRK[2Thi] | (R) LFKKLLKYLRKThi 3–14, major, 12 h | (K) KLLK (Y) 6–9, major, 18 h; also recorded: (R) LFKK (L) 3–6, major, 18 h; also recorded: (K) LLK (Y) 7–9, major, 18 h; also recorded: (K) YLR (K) 10–12, major, 18 h; also recorded: (R) LFK (K) 3–5, major, 18 h | – | – | – | – | – | – | – | – | – | – | – | – | – | –
HorRLFKKLLKYLRKThi | (R) LFKKLLKYLRKThi 3–14, major, 12 h; also recorded: (Hor) RLFKKLLKYLRKThi 2–14, major, 12 h | (K) KLLK (Y) 6–9, major, 18 h; also recorded: (R) LFKK (L) 3–6, major, 18 h; also recorded: (K) LLK (Y) 7–9, major, 18 h; also recorded: (K) YLR (K) 10–12, major, 18 h; also recorded: (R) LFK (K) 3–5, major, 18 h | – | – | – | – | – | – | – | – | – | – | – | – | – | –
DapHorLFDapDapLLDabYLHorDabThi | (Dap) HorLFDapDapLLDabYLHorDabThi 2–14, major, 12 h | (Dap) HorLFDap (Dap) 2–5, major, 18 h; also recorded: DapHorLFDapDapLLDab (Y) 1–9, major, 18 h; also recorded: DapHorLFDapDapLLDabYLHor (Dab) 1–12, major, 18 h; also recorded: (Dap) HorLFDapDapLLDabYLHorDabThi 2–14, major, 18 h | – | – | – | – | – | – | – | – | – | – | – | – | – | –
CC(C)C[C@H](NC(=O)[C@H](Cc1ccc(O)cc1)NC(=O)[C@H](CCCCN)NC(=O)[C@H](CC(C)C)NC(=O)[C@H](CC(C)C)NC(=O)[C@H](CCCCN)NC(=O)[C@H](CCCCN)NC(=O)[C@H](Cc1ccccc1)NC(=O)[C@H](CC(C)C)NC(=O)[C@H](CCCNC(=N)N)NC(=O)[C@@H](N)CCCCNC(=N)N)C(=O)N[C@@H](CCCNC(=N)N)C(=O)N[C@@H](CCCCN)C(=O)N[C@@H](Cc1cccs1)C(N)=O [UP10] (H-[hArg]RLFKKLLKYLRK[2Thi]-NH2) | – | – | 4 (≈ 2.07 µM) | 56.82 ± 2.62 | 95.02 ± 1.84 | 0.5 (≈ 0.259 µM) | 4 (≈ 2.07 µM) | 1 (≈ 0.519 µM) | 2 (≈ 1.04 µM) | 2 (≈ 1.04 µM) | 2 (≈ 1.04 µM) | 31.6 ± 7.81 | > 40 | > 50 | 22.8 ± 4.65 | –
CC(C)C[C@H](NC(=O)[C@H](Cc1ccc(O)cc1)NC(=O)[C@H](CCCCN)NC(=O)[C@H](CC(C)C)NC(=O)[C@H](CC(C)C)NC(=O)[C@H](CCCCN)NC(=O)[C@H](CCCCN)NC(=O)[C@H](Cc1ccccc1)NC(=O)[C@H](CC(C)C)NC(=O)[C@H](CCCNC(=N)N)NC(=O)[C@@H](N)CCCCN)C(=O)N[C@@H](CCCNC(=N)N)C(=O)N[C@@H](CCCCN)C(=O)N[C@@H](Cc1cccs1)C(N)=O [UP08] (H-KRLFKKLLKYLRK[2Thi]-NH2) | – | – | 4 (≈ 2.12 µM) | 52.49 ± 2.25 | 86.84 ± 1.24 | 1 (≈ 0.53 µM) | 4 (≈ 2.12 µM) | 2 (≈ 1.06 µM) | 2 (≈ 1.06 µM) | 2 (≈ 1.06 µM) | 2 (≈ 1.06 µM) | – | > 40 | > 50 | 14.6 ± 2.96 | 26.85 ± 2.61
CC(C)C[C@H](NC(=O)[C@H](CCCCN)NC(=O)[C@H](CCCCN)NC(=O)[C@H](Cc1ccccc1)NC(=O)[C@H](CC(C)C)NC(=O)[C@H](CCCNC(=N)N)NC(=O)[C@@H](N)CCCCN)C(=O)N[C@@H](CC(C)C)C(=O)N[C@@H](CCCCN)C(=O)N[C@@H](Cc1ccc(O)cc1)C(=O)N[C@@H](CC(C)C)C(=O)N[C@@H](CCCNC(=N)N)C(=O)N[C@H](CCCCN)C(=O)N[C@@H](Cc1ccccc1)C(N)=O [DP03] (H-KRLFKKLLKYLR[dK]F-NH2) | – | – | 4 (≈ 2.13 µM) | 41.96 ± 4.14 | 51.55 ± 3.89 | 1 (≈ 0.532 µM) | 8 (≈ 4.25 µM) | 1 (≈ 0.532 µM) | 2 (≈ 1.06 µM) | 2 (≈ 1.06 µM) | 1 (≈ 0.532 µM) | 73.5 ± 4.83 | > 40 | > 50 | 45 ± 5.96 | –
